Where a name gives a salt, the structure may show the parent alone. Marks after values point to notes of the source that are not given here.
Tests used:
[1] = rats exposed to sulcotrione; cited from earlier work
[2] = Plasma metabolite profiling (GC-MS, LC-MS, SPE-LC-MS) of rats dosed once daily over 28 days; treatment ratios versus untreated control; type: in vivo, rat; conditions: for 5-Oxoproline, plasma metabolite ratio versus control / Alanine, plasma metabolite ratio versus control / Arginine (second line of the table), plasma metabolite ratio versus control / Arginine, plasma metabolite ratio versus control / Citrulline, plasma metabolite ratio versus control / Glutamine, plasma metabolite ratio versus control / Proline, plasma metabolite ratio versus control / Tyrosine, plasma metabolite ratio versus control / Creatinine, ratio versus control: male rats; for 5-Oxoproline, plasma metabolite ratio versus control / Alanine, plasma metabolite ratio versus control / Arginine (second line of the table), plasma metabolite ratio versus control / Arginine, plasma metabolite ratio versus control / Citrulline, plasma metabolite ratio versus control / Glutamine, plasma metabolite ratio versus control / Proline, plasma metabolite ratio versus control / Tyrosine, plasma metabolite ratio versus control: high dose; for Creatinine, ratio versus control: Table 12a; for Adrenaline (Epi-nephrine), ratio versus control / Glutamate, ratio versus control / Serotonin (5-HT), ratio versus control: Table 7b
Outline: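 Male and female rats (5/sex/group) dosed once daily for 28 days; fasted anaesthetized animals bled retro-orbitally (EDTA plasma) on days 7, 14, 28, stored −80 °C under N2. Polar and lipid fractions profiled by GC-MS (derivatized), LC-MS/MRM; steroids by online SPE-LC-MS. Pool-normalized data; treatment ratios vs sex-matched controls, Welch test p-values.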

[3] = plasma, female rats, day 28, high dose, Table 6b
[4] = plasma, female rats, day 7, high dose
[5] = plasma, female rats, day 14, high dose, Table 7a
[6] = plasma, female rats, day 14, high dose
[7] = plasma, female rats, day 28, high dose, Table 7a
[8] = plasma, female rats, day 28, high dose

In the case of `CS(=O)(=O)c1ccc(C(=O)C2C(=O)CCCC2=O)c(Cl)c1` [sulcotrione], the corneal lesions [1] is given as “corneal lesions that varied in severity from partial or hazy opacity to complete opacity”.
With Lead acetate trihydrate the “5-Oxoproline, plasma metabolite ratio versus control” value ([2]; day 7 (m7)) was 0.88, the “Alanine, plasma metabolite ratio versus control” value ([2]; day 7 (m7)) was 0.68 and the “Arginine (second line of the table), plasma metabolite ratio versus control” value ([2]; day 7 (m7)) was 0.91. The “Arginine, plasma metabolite ratio versus control” value ([2]; day 7 (m7)) was 0.86, the “Citrulline, plasma metabolite ratio versus control” value ([2]; day 7 (m7)) was 0.94 and the “Glutamine, plasma metabolite ratio versus control” value ([2]; day 7 (m7)) was 0.83. The “Proline, plasma metabolite ratio versus control” value ([2]; day 7 (m7)) was 0.88, the “Tyrosine, plasma metabolite ratio versus control” value ([2]; day 7 (m7)) was 0.92 and the “5-Oxoproline, plasma metabolite ratio versus control” value ([2]; day 14 (m14)) was 0.92. For the same molecule, the “Alanine, plasma metabolite ratio versus control” value ([2]; day 14 (m14)) was 0.75, the “Arginine (second line of the table), plasma metabolite ratio versus control” value ([2]; day 14 (m14)) was 0.90 and the “Arginine, plasma metabolite ratio versus control” value ([2]; day 14 (m14)) was 0.87. The “Citrulline, plasma metabolite ratio versus control” value ([2]; day 14 (m14)) was 0.90, the “Glutamine, plasma metabolite ratio versus control” value ([2]; day 14 (m14)) was 0.83 and the “Proline, plasma metabolite ratio versus control” value ([2]; day 14 (m14)) was 0.84. For the same molecule, the “Tyrosine, plasma metabolite ratio versus control” value ([2]; day 14 (m14)) was 0.88, the “5-Oxoproline, plasma metabolite ratio versus control” value ([2]; day 28 (m28)) was 0.86 and the “Alanine, plasma metabolite ratio versus control” value ([2]; day 28 (m28)) was 0.75. The “Arginine (second line of the table), plasma metabolite ratio versus control” value ([2]; day 28 (m28)) was 0.89, the “Arginine, plasma metabolite ratio versus control” value ([2]; day 28 (m28)) was 0.90 and the “Citrulline, plasma metabolite ratio versus control” value ([2]; day 28 (m28)) was 0.91. For the same molecule, the “Glutamine, plasma metabolite ratio versus control” value ([2]; day 28 (m28)) was 0.87, the “Proline, plasma metabolite ratio versus control” value ([2]; day 28 (m28)) was 0.88 and the “Tyrosine, plasma metabolite ratio versus control” value ([2]; day 28 (m28)) was 0.90. The “Creatinine, ratio versus control” value ([2]; plasma, day 7, high dose) was 1.16, the “Creatinine, ratio versus control” value ([2]; plasma, day 14, high dose) was 1.32 and the “Creatinine, ratio versus control” value ([2]; plasma, day 28, high dose) was 1.66.
With `C=CCN1C[C@H](C(=O)N(CCCN(C)C)C(=O)NCC)C[C@@H]2c3cccc4[nH]cc(c34)C[C@H]21` [Cabergoline] the “Isoleucine, ratio versus control” value ([2]; plasma, female rats, day 28, high dose, Table 6a) was 1.14*, the “4-Hydroxy-3-methoxyphenylglycol (HMPG), ratio versus control” value [2, 3] was 0.79* and the “14-Methylhexadecanoic acid, ratio versus control” value [2, 3] was 0.74*. The “16-Methylheptadecanoic acid, ratio versus control” value [2, 3] was 0.28*, the “17-Methyloctadecanoic acid, ratio versus control” value [2, 3] was 0.3* and the “Ceramide (d18:1,C24:1), ratio versus control” value [2, 3] was 0.39*. For the same molecule, the “Choline plasmalogen No 03, ratio versus control” value [2, 3] was 0.39*, the “Homovanillic acid (HVA), ratio versus control” value [2, 3] was 0.41* and the “Isopalmitic acid (C16:0), ratio versus control” value [2, 3] was 0.36*. For the same molecule, the “Lactate, ratio versus control” value [2, 3] was 0.7*, the “Myristic acid (C14:0), ratio versus control” value [2, 3] was 0.33* and the “Phosphatidylcholine (C16:0, C20:4), ratio versus control” value [2, 3] was 0.97. For the same molecule, the “Phosphatidylcholine No 04, ratio versus control” value [2, 3] was 0.34*, the “Pyruvate, ratio versus control” value [2, 3] was 0.93 and the “3-Methoxytyrosine, ratio versus control” value ([2]; rat, in vivo) was 1.24*.
With `Fc1ccc([C@@H]2CCNC[C@H]2COc2ccc3c(c2)OCO3)cc1` [Paroxetine hydrochloride] the “alpha-Tocopherol, ratio versus control” value ([2]; plasma, female rats, day 7, high dose, Table 7a) was 1.08, the “Adrenaline (Epi-nephrine), ratio versus control” value [2, 4] was 0.19* and the “Glutamate, ratio versus control” value [2, 4] was 0.7*. The “Serotonin (5-HT), ratio versus control” value [2, 4] was 0.09*, the “4-Hydroxysphinganine (t18:0, Phytosphingosine), total, ratio versus control” value (“4-Hydroxysphinganine … ratio versus control” below) [2, 5] was 1.9* and the “Threonine, ratio versus control” value [2, 5] was 1.65*. The “alpha-Tocopherol, ratio versus control” value [2, 5] was 1.31*, the “Adrenaline (Epi-nephrine), ratio versus control” value [2, 6] was 0.36* and the “Glutamate, ratio versus control” value [2, 6] was 0.68*. For the same molecule, the “Serotonin (5-HT), ratio versus control” value [2, 6] was 0.07*, the “4-Hydroxysphinganine … ratio versus control” value [2, 7] was 2.11* and the “Threonine, ratio versus control” value [2, 7] was 1.4*. The “Adrenaline (Epi-nephrine), ratio versus control” value [2, 8] was 0.89, the “Glutamate, ratio versus control” value [2, 8] was 0.85 and the “Serotonin (5-HT), ratio versus control” value [2, 8] was 0.04*. The “4-Hydroxysphinganine … ratio versus control” value ([2]; rat, in vivo) was 1.99*, the “Threonine, ratio versus control” value ([2]; rat, in vivo) was 1.41* and the “alpha-Tocopherol, ratio versus control” value ([2]; rat, in vivo) was 1.32*.
